Assay results from patent US9598446B2, “Amino compounds for treatment of complement mediated disorders” (priority 2014, dated 2017).

molecular target: Human factor D (Homo sapiens (Human), UniProt P00746); test: Human Factor D Assay; type: biochemical; conditions: not given
Sequence (P00746 26-253): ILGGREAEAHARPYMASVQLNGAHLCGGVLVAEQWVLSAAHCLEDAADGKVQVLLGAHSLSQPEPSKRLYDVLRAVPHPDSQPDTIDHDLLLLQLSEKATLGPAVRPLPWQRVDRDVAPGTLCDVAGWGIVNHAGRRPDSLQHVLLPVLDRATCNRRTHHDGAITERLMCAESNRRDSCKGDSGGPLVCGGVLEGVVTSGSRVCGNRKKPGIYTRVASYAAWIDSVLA

SMILES | IC50 [nM]
CC(=O)c1cn(CC(=O)N2C[C@H](F)C[C@H]2C(=O)Nc2ccc(CN)cc2)c2ccc(Nc3cncnc3)cc12 [Compound 53, (2S,4R)-1-(2-(3-acetyl-5-(pyrimidin-5-ylamino)-1H-indol-1-yl)acetyl)-N-(4-(aminomethyl)phenyl)-4-fluoropyrrolidine-2-carboxamide] | 1000 to 10000
CC(=O)c1cn(CC(=O)N2C[C@H](F)C[C@H]2C(=O)Nc2nc(-c3c(C)nc4sccn34)cs2)c2ccc(Nc3cncnc3)cc12 [Compound 49, (2S,4R)-1-(2-(3-acetyl-5-(pyrimidin-5-ylamino)-1H-indol-1-yl)acetyl)-4-fluoro-N-(4-(6-methylimidazo[2,1-b]thiazol-5-yl)thiazol-2-yl)pyrrolidine-2-carboxamide] | 1000 to 10000
CC(=O)c1cn(CC(=O)N2C[C@H](F)C[C@H]2C(=O)Nc2c[nH]nc2-c2ccc(Cl)cc2Cl)c2ccc(Nc3cncnc3)cc12 [Compound 55, (2S,4R)-1-(2-(3-acetyl-5-(pyrimidin-5-ylamino)-1H-indol-1-yl)acetyl)-N-(3-(2,4-dichlorophenyl)-1H-pyrazol-4-yl)-4-fluoropyrrolidine-2-carboxamide] | 1000 to 10000
CC(=O)c1cn(CC(=O)N2C[C@H](F)C[C@H]2C(=O)N[C@H]2CCCC[C@@H]2O)c2ccc(Nc3cncnc3)cc12 [Compound 36, (2S,4R)-1-(2-(3-acetyl-5-(pyrimidin-5-ylamino)-1H-indol-1-yl)acetyl)-4-fluoro-N-((1S,2S)-2-hydroxycyclohexyl)pyr-rolidine-2-carboxamide] | 1000 to 10000

same assay, conditions: human factor D 80 nM, substrate Z-L-Lys-SBz1 and DTNB 100 μM each, pH 7.5; read-out: IC50

SMILES | IC50 [nM]
CC(=O)c1cn(CC(=O)N2C[C@H](F)C[C@H]2C(=O)Nc2cc(C)nn2-c2ccccc2F)c2ccc(Nc3cncnc3)cc12 [Compound 57, (2S,4R)-1-(2-(3-acetyl-5-(pyrimidin-5-ylamino)-1H-indol-1-yl)acetyl)-4-fluoro-N-(1-(2-fluorophenyl)-3-methyl-1H-pyrazol-5-yl)pyrrolidine-2-carboxamide] | < 1000
CC(=O)c1cn(C(=O)CN2C[C@H](F)C[C@H]2C(=O)Nc2nnc(-c3ccc(Cl)c(Cl)c3)s2)c2ccc(Nc3cncnc3)cc12 [Compound 39, (2S,4R)-1-(2-(3-acetyl-5-(pyrimidin-5-ylamino)-1H-indol-1-yl)-2-oxoethyl)-N-(5-(3,4-dichlorophenyl)-1,3,4-thiadiazol-2-yl)-4-fluoropyrrolidine-2-carboxamide] | > 10000
CC(=O)c1cn(CC(=O)N2C[C@H](F)C[C@H]2C(=O)Nc2ncc(Br)cn2)c2ccc(Nc3cncnc3)cc12 [Compound 44, (2S,4R)-1-(2-(3-acetyl-5-(pyrimidin-5-ylamino)-1H-indol-1-yl)acetyl)-N-(5-bromopyrimidin-2-yl)-4-fluoropyrrolidine-2-carboxamide] | < 1000
CC(=O)c1cn(CC(=O)N2C[C@H](F)C[C@H]2C(=O)Nc2cccc3c2OC(C)(C)C3)c2ccc(Nc3cncnc3)cc12 [Compound 24, (2S,4R)-1-(2-(3-acetyl-5-(pyrimidin-5-ylamino)-1H-indol-1-yl)acetyl)-N-(2,2-dimethyl-2,3-dihydrobenzofuran-7-yl)-4-fluoropyrrolidine-2-carboxamide] | < 1000
CC(=O)c1cn(CC(=O)N2C[C@H](F)C[C@H]2C(=O)NCc2cc(F)cc(Cl)c2)c2ccc(Nc3cncnc3)cc12 [Compound 18, (2S,4R)-1-(2-(3-acetyl-5-(pyrimidin-5-ylamino)-1H-indol-1-yl)acetyl)-N-(3-chloro-5-fluorobenzyl)-4-fluoropyrrolidine-2-carboxamide] | < 1000
CC(=O)c1cn(CC(=O)N2C[C@H](F)C[C@H]2C(=O)NC2CCCc3nc(-c4ccc(F)cc4)sc32)c2ccc(Nc3cncnc3)cc12 (stereo partly drawn) [Compound 28, (2S,4R)-1-(2-(3-acetyl-5-(pyrimidin-5-ylamino)-1H-indol-1-yl)acetyl)-4-fluoro-N-(2-(4-fluorophenyl)-4,5,6,7-tetrahydrobenzo[d]thiazol-7-yl)pyrrolidine-2-carboxamide] | > 10000
CC(=O)c1cn(CC(=O)N2C[C@H](F)C[C@H]2C(=O)Nc2ccccc2-c2nncn2C)c2ccc(Nc3cncnc3)cc12 [Compound 61, (2S,4R)-1-(2-(3-acetyl-5-(pyrimidin-5-ylamino)-1H-indol-1-yl)acetyl)-4-fluoro-N-(2-(4-methyl-4H-1,2,4-triazol-3-yl)phenyl)pyrrolidine-2-carboxamide] | > 10000
NC(=O)c1nn(CC(=O)N2C[C@H](F)C[C@H]2C(=O)Nc2cccc(Cl)n2)c2ccc(Nc3cncnc3)cc12 [Compound 12, 1-(2-((2S,4R)-2-(6-chloropyridin-2-ylcarbamoyl)-4-fluoropyrrolidin-1-yl)-2-oxoethyl)-5-(pyrimidin-5-ylamino)-1H-indazole-3-carboxamide] | < 1000
CC(=O)c1cn(CC(=O)N2C[C@H](F)C[C@H]2C(=O)Nc2noc(-c3ccccc3Cl)n2)c2ccc(Nc3cncnc3)cc12 [Compound 62, (2S,4R)-1-(2-(3-acetyl-5-(pyrimidin-5-ylamino)-1H-indol-1-yl)acetyl)-N-(5-(2-chlorophenyl)-1,2,4-oxadiazol-3-yl)-4-fluoropyrrolidine-2-carboxamide] | < 1000
NC(=O)c1nn(CC(=O)N2C[C@H](F)C[C@H]2C(=O)Nc2cccc(-c3ccccc3Cl)c2F)c2ccc(Nc3cccnn3)cc12 [Compound 9, 1-(2-((2S,4R)-2-(2′-chloro-2-fluorobiphenyl-3-ylcarbamoyl)-4-fluoropyrrolidin-1-yl)-2-oxoethyl)-5-(pyridazin-3-ylamino)-1H-indazole-3-carboxamide] | < 1000
CC(=O)c1cn(CC(=O)N2C[C@H](F)C[C@H]2C(=O)Nc2nc(-c3cccc(Cl)c3)ns2)c2ccc(Nc3cncnc3)cc12 [Compound 60, (2S,4R)-1-(2-(3-acetyl-5-(pyrimidin-5-ylamino)-1H-indol-1-yl)acetyl)-N-(3-(3-chlorophenyl)-1,2,4-thiadiazol-5-yl)-4-fluoropyrrolidine-2-carboxamide] | > 10000
N#Cc1cnc(Nc2ccc3c(c2)c(C(N)=O)nn3CC(=O)N2C[C@H](F)C[C@H]2C(=O)Nc2cccc(-c3ccccc3Cl)c2F)nc1 [Compound 13, 1-(2-((2S,4R)-2-(2′-chloro-2-fluorobiphenyl-3-ylcarbamoyl)-4-fluoropyrrolidin-1-yl)-2-oxoethyl)-5-(5-cyanopyrimidin-2-ylamino)-1H-indazole-3-carboxamide] | < 1000
CC(=O)c1cn(CC(=O)N2C[C@H](F)C[C@H]2C(=O)Nc2cccc(Br)n2)c2ccc(Nc3cncnc3)cc12 [Compound 4, (2S,4R)-1-(2-(3-acetyl-5-(pyrimidin-5-ylamino)-1H-indol-1-yl)acetyl)-N-(6-bromopyridin-2-yl)-4-fluoropyrrolidine-2-carboxamide] | < 1000
CC(=O)c1cn(CC(=O)N2C[C@H](F)C[C@H]2C(=O)Nc2ccc3[nH]c(C)c(C)c3c2)c2ccc(Nc3cncnc3)cc12 [Compound 38, (2S,4R)-1-(2-(3-acetyl-5-(pyrimidin-5-ylamino)-1H-indol-1-yl)acetyl)-N-(2,3-dimethyl-1H-indol-5-yl)-4-fluoropyrrolidine-2-carboxamide] | < 1000
CC(=O)c1cn(CC(=O)N2C[C@H](F)C[C@H]2C(=O)N[C@H](CO)c2cccc(Cl)c2F)c2ccc(Nc3cncnc3)cc12 [Compound 7, (2S,4R)-1-(2-(3-acetyl-5-(pyrimidin-5-ylamino)-1H-indol-1-yl)acetyl)-N-((S)-1-(3-chloro-2-fluorophenyl)-2-hydroxyethyl)-4-fluoropyrrolidine-2-carboxamide] | < 1000
CC(=O)c1cn(CC(=O)N2C[C@H](F)C[C@H]2C(=O)N[C@@H](CO)c2cccc(Cl)c2F)c2ccc(Nc3cncnc3)cc12 [Compound 8, (2S,4R)-1-(2-(3-acetyl-5-(pyrimidin-5-ylamino)-1H-indol-1-yl)acetyl)-N-((R)-1-(3-chloro-2-fluorophenyl)-2-hydroxyethyl)-4-fluoropyrrolidine-2-carboxamide] | < 1000
CC(=O)c1cn(CC(=O)N2C[C@H](F)C[C@H]2C(=O)NC2CCCN(c3cnn(C)c3)C2)c2ccc(Nc3cncnc3)cc12 (stereo partly drawn) [Compound 42, (2S,4R)-1-(2-(3-acetyl-5-(pyrimidin-5-ylamino)-1H-indol-1-yl)acetyl)-4-fluoro-N-(1-(1-methyl-1H-pyrazol-4-yl)piperidin-3-yl)pyrrolidine-2-carboxamide] | < 1000
CC(=O)c1cn(CC(=O)N2C[C@H](F)C[C@H]2C(=O)Nc2cc3c(cc2F)OC(F)(F)O3)c2ccc(Nc3cncnc3)cc12 [Compound 35, (2S,4R)-1-(2-(3-acetyl-5-(pyrimidin-5-ylamino)-1H-indol-1-yl)acetyl)-4-fluoro-N-(2,2,6-trifluorobenzo[d][1,3]dioxol-5-yl)pyrrolidine-2-carboxamide] | < 1000
CC(=O)c1cn(CC(=O)N2C[C@H](F)C[C@H]2C(=O)NC2CCN(c3ccn(C)n3)C2=O)c2ccc(Nc3cncnc3)cc12 (stereo partly drawn) [Compound 64, (2S,4R)-1-(2-(3-acetyl-5-(pyrimidin-5-ylamino)-1H-indol-1-yl)acetyl)-4-fluoro-N-(1-(1-methyl-1H-pyrazol-3-yl)-2-oxopyrrolidin-3-yl)pyrrolidine-2-carboxamide] | < 1000
CC(=O)c1cn(CC(=O)N2C[C@H](F)C[C@H]2C(=O)Nc2cccnc2)c2ccc(Nc3cncnc3)cc12 [Compound 31, (2S,4R)-1-(2-(3-acetyl-5-(pyrimidin-5-ylamino)-1H-indol-1-yl)acetyl)-4-fluoro-N-(pyridin-3-yl)pyrrolidine-2-carboxamide] | < 1000
CC(=O)c1cn(CC(=O)N2C[C@H](F)C[C@H]2C(=O)Nc2nc(-c3ccccc3Cl)ns2)c2ccc(Nc3cncnc3)cc12 [Compound 29, (2S,4R)-1-(2-(3-acetyl-5-(pyrimidin-5-ylamino)-1H-indol-1-yl)acetyl)-N-(3-(2-chlorophenyl)-1,2,4-thiadiazol-5-yl)-4-fluoropyrrolidine-2-carboxamide] | < 1000
CC(=O)c1cn(CC(=O)N2C[C@H](F)C[C@H]2C(=O)Nc2cncc(Cl)c2)c2ccc(Nc3cncnc3)cc12 [Compound 22, (2S,4R)-1-(2-(3-acetyl-5-(pyrimidin-5-ylamino)-1H-indol-1-yl)acetyl)-N-(5-chloropyridin-3-yl)-4-fluoropyrrolidine-2-carboxamide] | < 1000
